How the values were obtained:
[1] = molecular target: T1, Cytochrome P450 1A1 (Homo sapiens, UniProt P04798); test: Binding affinity to human CYP1A1; format: ADME
T1 sequence (P04798 whole entry): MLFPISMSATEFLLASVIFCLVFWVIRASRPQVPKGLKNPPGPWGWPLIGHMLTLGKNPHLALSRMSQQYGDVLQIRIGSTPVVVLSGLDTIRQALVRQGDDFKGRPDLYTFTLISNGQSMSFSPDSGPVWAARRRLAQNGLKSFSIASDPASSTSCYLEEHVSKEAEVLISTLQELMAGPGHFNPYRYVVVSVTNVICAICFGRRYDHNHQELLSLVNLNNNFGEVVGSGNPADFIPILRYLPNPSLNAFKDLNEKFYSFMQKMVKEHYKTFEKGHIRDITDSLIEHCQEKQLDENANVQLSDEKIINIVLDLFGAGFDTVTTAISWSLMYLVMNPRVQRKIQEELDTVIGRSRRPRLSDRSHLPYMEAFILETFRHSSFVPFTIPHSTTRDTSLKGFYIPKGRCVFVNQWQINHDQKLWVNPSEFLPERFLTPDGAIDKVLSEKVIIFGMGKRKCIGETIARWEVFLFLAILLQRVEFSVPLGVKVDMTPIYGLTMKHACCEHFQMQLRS

[2] = Binding affinity to human CYP1A1-heme complex
[3] = Binding affinity to rat CYP2B1-heme complex
[4] = molecular target: T2, Cytochrome P450 2B1 (Rattus norvegicus, UniProt P00176); test: Binding affinity to rat CYP2B1; format: ADME
T2 sequence (P00176 whole entry): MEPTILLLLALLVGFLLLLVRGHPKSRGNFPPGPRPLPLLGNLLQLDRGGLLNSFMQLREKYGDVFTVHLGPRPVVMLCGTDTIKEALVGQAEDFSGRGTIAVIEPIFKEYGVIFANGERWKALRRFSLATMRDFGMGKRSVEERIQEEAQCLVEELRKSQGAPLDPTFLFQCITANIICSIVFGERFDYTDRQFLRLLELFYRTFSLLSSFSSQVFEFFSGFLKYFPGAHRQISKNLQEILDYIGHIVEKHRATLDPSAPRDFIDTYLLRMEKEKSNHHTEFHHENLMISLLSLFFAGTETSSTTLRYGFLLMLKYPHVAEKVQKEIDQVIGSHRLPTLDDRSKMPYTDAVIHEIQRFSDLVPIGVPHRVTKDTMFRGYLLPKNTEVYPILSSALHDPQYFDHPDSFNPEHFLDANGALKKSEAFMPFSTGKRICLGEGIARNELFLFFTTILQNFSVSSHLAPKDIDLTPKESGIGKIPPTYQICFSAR

Kd [1] [µM]	Kd [2] [µM]	Kd [3] [µM]	Kd [4] [µM]	Compound
2.25	0.789	1.77	1.12	O=C(O)CCC(=O)Nc1ccc(O)cc1
13.5	3.96	1.57	24	O=C1CCC(=O)N1c1ccc(O)cc1

Compound	Kd [1] [µM]	Kd [2] [µM]	Kd [3] [µM]	Kd [4] [µM]
CC(=O)Nc1ccc(O)cc1 [ACETAMINOPHEN]	19.1	5.79	6.64	

Source: ChEMBL document CHEMBL1275297, “Homology modeling and molecular dynamics of CYP1A1 and CYP2B1 to explore the metabolism of aryl derivatives by docking and experimental assays” (Eur J Med Chem, 2010)
